Results from ChEMBL document CHEMBL1127660, “Isolation, structural determination, and biological activity of 6 alpha-hydroxytaxol, the principal human metabolite of taxol” (J Med Chem, 1994).

Legend:
U-937 = test: The compound was tested for inhibition concentration against U-937 cell line; assay type: functional, cell-based; details: Homo sapiens
MOLT-4 = test: The compound was tested for inhibition concentration against MOLT-4 cell line; assay type: functional, cell-based; details: Homo sapiens

IC50 (U-937): 1 nM
IC50 (MOLT-4): 1.6 nM
Structure (SMILES): CC(=O)O[C@H]1C(=O)[C@@]2(C)[C@H]([C@H](OC(=O)c3ccccc3)[C@]3(O)C[C@H](OC(=O)[C@H](O)[C@@H](NC(=O)c4ccccc4)c4ccccc4)C(C)=C1C3(C)C)[C@]1(OC(C)=O)CO[C@@H]1C[C@@H]2O [PACLITAXEL]
